Results from publication PMC11089503, “Exploring Subsite Selectivity within Plasmodium vivaxN-Myristoyltransferase Using Pyrazole-Derived Inhibitors” (Journal of Medicinal Chemistry, 2024).
Where two headings read alike, the source gives them in different places.

What was measured:
HsNMT Isoform 1 = target: T1, HsNMT Isoform 1 (Homo sapiens, UniProt P30419); experiment: NMT activity assay (CPM fluorescence detection of free CoA), HsNMT
T1 sequence (P30419 1-496): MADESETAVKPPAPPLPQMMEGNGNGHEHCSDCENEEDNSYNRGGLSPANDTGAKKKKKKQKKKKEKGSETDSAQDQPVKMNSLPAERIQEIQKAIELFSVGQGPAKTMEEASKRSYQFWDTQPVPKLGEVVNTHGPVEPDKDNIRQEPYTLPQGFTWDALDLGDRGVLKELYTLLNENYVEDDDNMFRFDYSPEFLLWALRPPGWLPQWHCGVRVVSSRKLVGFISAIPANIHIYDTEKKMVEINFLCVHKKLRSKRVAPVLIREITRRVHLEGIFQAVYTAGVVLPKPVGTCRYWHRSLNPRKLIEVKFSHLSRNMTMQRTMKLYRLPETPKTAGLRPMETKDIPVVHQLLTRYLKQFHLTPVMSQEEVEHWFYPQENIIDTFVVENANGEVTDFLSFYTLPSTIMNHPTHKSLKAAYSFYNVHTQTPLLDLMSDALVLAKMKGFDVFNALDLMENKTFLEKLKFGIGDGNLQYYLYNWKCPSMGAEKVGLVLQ

PvNMT [1] = target: T2, PvNMT (Plasmodium vivax, UniProt A5K1A2); experiment: NMT activity assay (CPM fluorescence detection of free CoA), PvNMT
PvNMT [2] = target: T2, PvNMT; settings: cited from earlier work
HsNMT1/2 = test system: HsNMT1/2; parameters: method as in PMID 29760414; settings: cited from earlier work

T2 sequence (A5K1A2 entry or part of it): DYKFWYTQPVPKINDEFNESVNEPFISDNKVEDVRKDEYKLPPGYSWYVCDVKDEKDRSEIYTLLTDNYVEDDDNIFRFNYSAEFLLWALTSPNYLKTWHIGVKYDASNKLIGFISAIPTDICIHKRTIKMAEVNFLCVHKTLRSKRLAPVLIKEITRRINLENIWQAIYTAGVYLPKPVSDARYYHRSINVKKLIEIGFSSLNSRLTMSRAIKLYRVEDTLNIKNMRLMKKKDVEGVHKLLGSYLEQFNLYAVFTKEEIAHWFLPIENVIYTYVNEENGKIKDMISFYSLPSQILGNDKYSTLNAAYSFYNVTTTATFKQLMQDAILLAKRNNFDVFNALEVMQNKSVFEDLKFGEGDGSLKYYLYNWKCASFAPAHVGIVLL

Row | Structure (SMILES) | IC50 (HsNMT Isoform 1) [nM] | IC50 (PvNMT [1]) [nM] | further results
1 | Cc1c(CCOc2ccccc2-c2ccnc(N3CCNCC3)c2)c(C(=O)Nc2cccnc2)nn1C [Compound 8a, 1,5-Dimethyl-4-(2-(2-(2-(piperazin-1-yl)pyridin-4-yl)phenoxy)ethyl)-N-(pyridin-3-yl)-1H-pyrazole-3-carboxamide] | 2520 | 506 | –
2 | Cc1c(CCOc2ccccc2-c2ccnc(N3CCNCC3)c2)c(C(=O)N2CCOCC2)nn1C [Compound 8b, (1,5-Dimethyl-4-(2-(2-(2-(piperazin-1-yl)pyridin-4-yl)phenoxy)ethyl)-1H-pyrazol-3-yl)(morpholino)methanone] | 763 | 24 | –
3 | Cc1c(CCOc2ccccc2-c2ccnc(N3CCNCC3)c2)c(C(=O)NCC(=O)O)nn1C [Compound 8c, (1,5-Dimethyl-4-(2-(2-(2-(piperazin-1-yl)pyridin-4-yl)phenoxy)ethyl)-1H-pyrazole-3-carbonyl)glycine] | 116 | 147 | –
4 | Cc1c(CCOc2ccccc2-c2ccnc(N3CCNCC3)c2)c(C(=O)NCCN)nn1C [Compound 8f, N-(2-Aminoethyl)-1,5-dimethyl-4-(2-(2-(2-(piperazin-1-yl)pyridin-4-yl)phenoxy)ethyl)-1H-pyrazole-3-carboxamide] | 103 | 89 | –
5 | CC(=O)CNC(=O)c1nn(C)c(C)c1CCOc1ccccc1-c1ccnc(N2CCNCC2)c1 [Compound 8g, 1,5-Dimethyl-N-(2-oxopropyl)-4-(2-(2-(2-(piperazin-1-yl)pyridin-4-yl)phenoxy)ethyl)-1H-pyrazole-3-carboxamide] | 1590 | 32 | SI (enzyme selectivity) (PvNMT [1]; calculated as HsNMT IC50/PvNMT IC50): > 31
6 | Cc1c(CCOc2ccccc2-c2ccnc(N3CCNCC3)c2)c(C(=O)NCCO)nn1C [Compound 8h, N-(2-Hydroxyethyl)-1,5-dimethyl-4-(2-(2-(2-(piperazin-1-yl)pyridin-4-yl)phenoxy)ethyl)-1H-pyrazole-3-carboxamide] | 504 | 39 | –
7 | COC(=O)CNC(=O)c1nn(C)c(C)c1CCOc1ccccc1-c1ccnc(N2CCNCC2)c1 [Compound 8i, Methyl (1,5-Dimethyl-4-(2-(2-(2-(piperazin-1-yl)pyridin-4-yl)phenoxy)ethyl)-1H-pyrazole-3-carbonyl)glycinate] | 57 | 20 | –
8 | Cc1c(CCOc2cccnc2-c2ccnc(N3CCNCC3)c2)c(C(=O)Nc2cccnc2)nn1C [Compound 9a, 1,5-Dimethyl-4-(2-((2′-(piperazin-1-yl)-[2,4′-bipyridin]-3-yl)oxy)ethyl)-N-(pyridin-3-yl)-1H-pyrazole-3-carboxamide] | – | 1020 | –
9 | Cc1c(CCOc2cccnc2-c2ccnc(N3CCNCC3)c2)c(C(=O)N2CCOCC2)nn1C [Compound 9b, (1,5-Dimethyl-4-(2-((2′-(piperazin-1-yl)-[2,4′-bipyridin]-3-yl)oxy)ethyl)-1H-pyrazol-3-yl)(morpholino)methanone] | 1650 | 46 | –
10 | Cc1c(CCOc2cccnc2-c2ccnc(N3CCNCC3)c2)c(C(=O)NCC(=O)O)nn1C [Compound 9c, (1,5-Dimethyl-4-(2-((2′-(piperazin-1-yl)-[2,4′-bipyridin]-3-yl)oxy)ethyl)-1H-pyrazole-3-carbonyl)glycine] | 11100 | 230 | –
11 | Cc1c(CCOc2cccnc2-c2ccnc(N3CCNCC3)c2)c(C(=O)NCC(N)=O)nn1C [Compound 9d, N-(2-Amino-2-oxoethyl)-1,5-dimethyl-4-(2-((2′-(piperazin-1-yl)-[2,4′-bipyridin]-3-yl)oxy)ethyl)-1H-pyrazole-3-carboxamide] | 11000 | 181 | –
12 | Cc1c(CCOc2ccc3ccccc3c2-c2ccnc(N3CCNCC3)c2)c(C(=O)Nc2cccnc2)nn1C [Compound 10a, 1,5-Dimethyl-4-(2-((1-(2-(piperazin-1-yl)pyridin-4-yl)naphthalen-2-yl)oxy)ethyl)-N-(pyridin-3-yl)-1H-pyrazole-3-carboxamide] | – | 5070 | –
13 | Cc1c(CCOc2ccc3ccccc3c2-c2ccnc(N3CCNCC3)c2)c(C(=O)N2CCOCC2)nn1C [Compound 10b, (1,5-Dimethyl-4-(2-((1-(2-(piperazin-1-yl)pyridin-4-yl)naphthalen-2-yl)oxy)ethyl)-1H-pyrazol-3-yl)(morpholino)methanone] | 11400 | 91 | –
14 | Cc1c(CCOc2ccc3ccccc3c2-c2ccnc(N3CCNCC3)c2)c(C(=O)NCC(=O)O)nn1C [Compound 10c, (1,5-Dimethyl-4-(2-((1-(2-(piperazin-1-yl)pyridin-4-yl)naphthalen-2-yl)oxy)ethyl)-1H-pyrazole-3-carbonyl)glycine] | – | 1060 | –
15 | Cc1c(CCOc2ccc3ccccc3c2-c2ccnc(N3CCNCC3)c2)c(C(=O)NCC(N)=O)nn1C [Compound 10d, N-(2-Amino-2-oxoethyl)-1,5-dimethyl-4-(2-((1-(2-(piperazin-1-yl)pyridin-4-yl)naphthalen-2-yl)oxy)ethyl)-1H-pyrazole-3-carboxamide] | – | 1000 | –
16 | Cc1nn(C)c(C)c1CCOc1cc(F)ccc1-c1ccc2c(c1)c(CN(C)C)nn2C [IMP-1002] | – | – | IC50 (PvNMT [2]): 3 nM
17 | Cc1nn(C)c(C)c1CCOc1c(-c2ccc3c(c2)c(CN(C)C)nn3C)ccc(F)c1F [IMP-1088] | – | – | HsNMT1/2 IC50 (HsNMT1/2): picomolar
